These results are taken from paper PMC8698759, “Gold(I) Complexes Bearing Alkylated 1,3,5-Triaza-7-phosphaadamantane Ligands as Thermoresponsive Anticancer Agents in Human Colon Cells” (Biomedicines, 2021).

One data set relates to Human fibroblast cells. Nature of the data set: MTT cytotoxicity assay on fibroblasts. It is filed as cell-based. To be noted: for fibroblasts viability when treated at the IC50 value in Caco-2: 3a 2.5 µM, 3b 5.1 µM, 2a 12.3 µM, 2b 10.5 µM; for Selectivity Index (SI): IC50 fibroblasts/IC50 Caco-2; for IC50: MTT, mean ± SE. Here is the method: Human Caco-2 cell line (TC7 clone) was kindly provided by Dr. Edith Brot-Laroche (Université Pierre et Marie Curie-Paris 6, UMR S 872, Les Cordeliers, France). Human fibroblast cells were kindly provided by Dr. Julio Montoya (Unidad de Bioquímica, Facultad de Veterinaria, Universidad de Zaragoza, Spain). Caco-2 cells (passages 40–70) and fibroblasts (passages 10–30) were maintained in a humidified atmosphere of 5% CO2 at 37 °C. Cells were grown in Dulbecco’s Modified Eagles medium (DMEM) (Gibco Invitrogen, Paisley, UK) supplemented with 20% fetal bovine serum (FBS), 1% non-essential amino acids, 1% penicillin (1000 U/mL), 1% streptomycin (1000 μg/mL) and 1% amphotericin (250 U/mL). The cells were passaged enzymatically with 0.25% trypsin-1 mM EDTA. Caco-2 cells were sub-cultured on 25 cm^2 plastic flasks at a density of 1.2 × 10^4 cells/cm^2, while fibroblasts were sub-cultured on 75 cm^2 plastic flasks at a density of 1 × 10^4 cells/cm^2. Culture medium was replaced every 2 days.
Gold complex was diluted in dimethyl sulfoxide (DMSO) to a stock solution at 20 mM and then re-diluted to a working solution at 2.5 mM before diluting it in cell culture medium to treat cells at desired concentrations.
For cytotoxicity screening assays, Caco-2 cells were seeded in 96-well plates at a density of 4 × 10^3 cells/well. Culture medium was replaced with medium containing drug panel 24 h post-seeding and cells were incubated for 72 h. In fibroblasts, culture medium containing metal gold complexes was added 10 days post-seeding. Antiproliferative effect was measured with MTT assay as previously described by Mármol et al.. Absorbance at 540/620 nm was measured with SPECTROstar Nano (BMG Labtech). To determine the selectivity index (SI) the IC50 value in fibroblasts was divided by IC50 value in Caco-2, obtaining a ratio cancerous/normal cells toxicity.

Another data set deals with Caco-2 cells. As to the kind of experiment: Mitochondrial membrane potential assay by flow cytometry (DilC1). To be noted: Caco-2, 48 h; 3a 5.0 µM, 3b 10.2 µM. It is filed as cell-based, human. How it is done:
Caco-2 cells were seeded in 75 cm^2 flasks at a density of 1 × 10^4 cells/cm^2 and 24 h post-seeding medium was replaced with medium containing drug panel and incubated for 48 h. Then. cells were washed twice and resuspended in PBS at a concentration of 10^6 cells/mL before incubation with 5 µL of 10 µM 1,1′,3,3,3′-hexamethylindodicarbo-cyanine iodide (DilC1).
On the technique in general: A flow cytometer gives signals particle by particle.

Regarding `FC(F)(F)C(F)(F)C(F)(F)C(F)(F)C(F)(F)C(F)(F)CC[N+]12CN3CN(C1)C[P+]([Au-][S]c1ccccn1)(C3)C2.O=S(=O)([O-])C(F)(F)F` [Complex 3b, [Au(C5H5NS)(PTA-CH2CH2(CF2)5CF3)](TfO)], in the data set on Human fibroblast cells, the “fibroblasts viability when treated at the IC50 value in Caco-2” value is given as “did not compromise fibroblasts viability”, the “Selectivity Index (SI)” value was 2.51 and it took 12.8 ± 1.48 µM to reach half-maximal inhibition (IC50). The “mitochondrial depolarisation (cells with reduced ΔΨm)” value with Caco-2 cells is reported as “induced mitochondrion depolarisation”.

On to `CCCCCCCC[N+]12CN3CN(C1)C[P+]([Au-][S]c1ccccn1)(C3)C2.[I-]` [Complex 3a, [Au(C5H5NS)(PTA-CH2(CH2)6CH3)]I], for which, in the data set on Human fibroblast cells, the “fibroblasts viability when treated at the IC50 value in Caco-2” value was “did not compromise fibroblasts viability”, the “Selectivity Index (SI)” value is listed as 4.86 and the IC50 (usually the midpoint of a concentration-inhibition curve) is 12.11 ± 0.11 µM. Moreover, the “mitochondrial depolarisation (cells with reduced ΔΨm)” value in the data set with Caco-2 cells is “induced mitochondrion depolarisation”.
